Assay: Agilent ZORBAX 300 SB-C18, 150 × 1 mm, 3.5 µm; A: water + 0.01% heptafluorobutyric acid; B: acetonitrile + 0.01% heptafluorobutyric acid; gradient (min/%B) 0/0 100/90
Conditions: stereoisomer not certain

Row | Structure (SMILES) | LC retention time [min]
1 | CNCc1n[nH]c(=O)[nH]1 | 2.58
2 | CN1CCN(c2nc(N)cc(=O)[nH]2)CC1 | 5.8
3 | CCCCCCCCN1C2=C(C(=O)CC(C)(C)C2)C(c2ccccc2)C2=C1CC(C)(C)CC2=O | 20.9
4 | S=C1N=C2CCCCC2C2(CCCCC2)N1 (stereo unspecified) | 11.6
5 | CC(C)NC(C)C | 7.12
6 | CCCCCCC[n+]1ccc(-c2cc[n+](CCCCCCC)cc2)cc1 | 10.5
7 | Cc1ccc(C(=O)c2ccc(C)c(N)c2)cc1N | 10.3
8 | CNC(=S)NNC(=O)Cc1cccc2ccccc12 | 10.3
9 | CCCC(=O)C1CCNCC1 | 7.57
10 | O=C1c2ccccc2-c2nc3ccccc3cc21 | 14.2
11 | Cc1ccsc1CNC(C)c1ccccc1 (stereo unspecified) | 9.76
12 | CC12CCC(O)CC1=CCC1C2CCC2(C)C(N)CCC12 (stereo unspecified) | 8.88
13 | NNc1cccc2ncccc12 | 8.48
14 | CC(=NNC(=O)CNC(=O)c1ccco1)c1ccc(C(C)(C)C)cc1 | 13.9
15 | CCCn1cnc2c1c(=O)n(CCCCC(C)=O)c(=O)n2C | 10.2
16 | COc1cc2c(cc1OC)NC(=O)C2 | 7.73
17 | c1ccc(SCSc2ccccn2)nc1 | 13.7
18 | CCOC(=O)c1cnc2ccccc2n1 | 10.7
19 | CC(C)CCCC(C)N (stereo unspecified) | 9.28
20 | O=C1c2ccccc2C(O)(c2ccccc2)N1C(c1ccccc1)c1ccccc1 (stereo unspecified) | 16.8
21 | Cc1cccc(NC(=O)C(Cc2c[nH]c3ccccc23)NC(=O)C(c2ccccc2)c2ccccc2)c1C (stereo unspecified) | 16.7
22 | CCOc1ccccc1CNC(N)=O | 9.32
23 | CNC1CCCCC1 | 7.45

Row | Structure (SMILES) | LC retention time [min]
24 | CCc1ncc(C)[nH]1 | 6.62
25 | CN(C)CCCNC(=O)Nc1cccc2ccccc12 | 8.85
26 | NCCN1CCNCC1 | 6.42
27 | CN(C)c1ccc(C=NNc2nc3ccccc3c(=O)n2-c2ccccc2)cc1 | 14.3
28 | c1cc(-c2nn[nH]n2)cc(-n2cccn2)c1 | 9.34
29 | NC(=O)Nc1ccccc1 | 7.26
30 | O=C1Cc2ccccc2N1 | 8.51
31 | c1ccc(N2CCNCC2)cc1 | 8
32 | CCOC(=O)C(N)CCCN=C(N)N (stereo unspecified) | 7.25
33 | O=c1cc(O)c2ccccc2[nH]1 | 8.44
34 | c1ccc(-n2c3c(c4ccccc42)CCC3)cc1 | 20.1
35 | CC(C)n1c2ccccc2c2ccccc21 | 18.2
36 | CC(C)C1CN(Cc2ccco2)CCN1 (stereo unspecified) | 7.94
37 | NC(=S)NN=Cc1c2ccccc2cc2ccccc12 | 13.7
38 | CCC1NC(=O)NC(C)=C1C(C)=O (stereo unspecified) | 7.34
39 | c1ccc2[nH]cnc2c1 | 7.09
40 | Cc1ccccc1C=NNC(N)=S | 10.7
41 | Cc1ccc(-c2ccc(C(=O)O)[nH]2)cc1 | 12
42 | CCc1cccc2ccn(Cc3ccccc3)c12 | 18.4
43 | CCNCCN(CC)CC | 6.96
44 | OCc1cccnc1-c1ncccc1CO | 6.38
45 | c1cnc2[nH]ccc2c1 | 7.27
46 | CN(C)CCOC(C)(c1ccccc1)c1ccccn1 (stereo unspecified) | 8.98

Row | Structure (SMILES) | LC retention time [min]
47 | OCc1cccnc1 | 4.28
48 | Nc1nc(N)nc(N)n1 | 4.25
49 | NCCCSc1ccccc1 | 8.67
50 | CCCCN1CNC(=S)NC1 | 7.45
51 | COc1ccc(-n2c(O)c(Cc3ccc(OC)c(OC)c3)c(=O)[nH]c2=O)cc1 | 10.7
52 | O=C(O)CCNc1n[nH]c(=O)[nH]c1=O | 5.51
53 | Cc1ccc(C=C2CN(C)CC(=Cc3ccc(C)cc3C)C2=O)c(C)c1 | 13.1
54 | OCc1ccc2cc[nH]c2c1 | 8.46
55 | c1ccc(Sc2ccc3ccccc3n2)cc1 | 16.3
56 | C=CCC1(C(C)CCC)C(=O)NC(=O)NC1=O (stereo unspecified) | 11.4
57 | CSC(=N)N | 4.66
58 | Cc1ccnc(C)c1 | 6.8
59 | O=C(C=Cc1ccccc1)c1ccc(O)cc1O | 14.3
60 | CCNCCN(C)C | 7.47
61 | Cc1[nH]c2ccccc2c1C=NNC(N)=S | 9.71
62 | CCc1ccccn1 | 6.68
63 | Cc1[nH]c2ccccc2c1C=NN=Cc1c(C)[nH]c2ccccc12 | 12
64 | NC1CCc2ccccc21 (stereo unspecified) | 7.85
65 | CC(=O)c1cccc(NC(=O)c2ccc(C)cc2)c1 | 13
66 | COC1N(c2ccccc2)N=C(c2ccccc2)N1c1ccccc1 (stereo unspecified) | 16.8
67 | O=C(C=Cc1ccco1)C1CC1 | 12.1
68 | COc1ccccc1NC(=O)C(c1ccccc1)c1ccccc1 | 16.6

Further lines, results first:

Row | LC retention time [min] | Structure (SMILES)
69 | 20.3 | CN(c1ccccc1)c1ccc(C=C2CCc3ccccc3C2=O)cc1
70 | 11.4 | CC(C)Cn1c(Cc2ccccc2)nc2ccccc21
71 | 9.54 | O=C(CN1CCN(C(=O)CNC2CCCCC2)CC1)NC1CCCCC1
72 | 19.5 | CC(C)Cn1c2ccccc2c2ccccc21
73 | 10.6 | Cc1ccc(-c2cc(C)c(C)cc2C)nc1
74 | 8.71 | Nc1nc(N)c2nc(-c3ccccc3)c(N)nc2n1
75 | 7.1 | Nc1ccc2nccnc2c1
76 | 21.5 | CCOC(=O)C1=CN(c2cc(C)ccc2C)C=C(C(=O)OCC)C1c1cccc(C)c1
77 | 14.4 | CCOc1cc(C(=O)Nc2ccc(OC)c(OC)c2)cc(OCC)c1OCC
78 | 7.74 | Cc1ccc2nc[nH]c2c1
79 | 8.09 | NCc1cc2ccccc2o1
80 | 7 | CC(=O)N1CCC(C2CCNCC2)CC1
81 | 8.46 | Cc1ccc(CNC(C)(C)C)s1
82 | 3.12 | O=C(O)c1cccc(C(=O)O)n1
83 | 8.97 | Cc1cn(C2CC(O)C(CO)O2)c(=O)[nH]c1=O (stereo unspecified)
84 | 7.08 | CC(c1ccccc1)C(N)C(=O)O (stereo unspecified)
85 | 12.5 | CC(=O)c1c(C(C)=O)c(C)n(CCc2c[nH]c3ccccc23)c1C
86 | 7.34 | Cc1ccc(N)cc1C(=O)O
87 | 9.43 | COc1ccc2c(c1)C(C)CC(C)(C)N2 (stereo unspecified)
88 | 11.9 | COc1ccc(C2CC(=O)Nc3cc4c(cc32)OCO4)cc1 (stereo unspecified)
89 | 11.4 | Cn1c(C(=O)O)cc2ccccc21

Row | LC retention time [min] | Structure (SMILES)
90 | 3.76 | Cn1ccnc1
91 | 9.16 | CCOc1ccccc1NC(=O)c1cc(=O)[nH]c(=O)[nH]1
92 | 9.62 | COc1ccc(NC(=O)c2ccc3c(c2)NC(=O)CO3)cc1OC
93 | 17.9 | Cc1cc(C)cc(NC(=O)c2cc(-c3ccccc3)nc3ccccc23)c1
94 | 9.74 | Nc1ccc2ncn(Cc3ccccc3)c(=O)c2c1
95 | 9.89 | CC(COc1ccccc1)NC(C)C(O)c1ccc(O)cc1 (stereo unspecified)
96 | 10.1 | COc1ccc(CN(CCN(C)C)c2ccccn2)cc1
97 | 9.02 | CC(C)(C)Nc1ncnc2ccccc12
98 | 13.6 | O=C(NCCOc1ccccc1)Nc1cccc(NC(=O)NCCOc2ccccc2)c1
99 | 8.07 | O=C1c2ccccc2C(=O)N1CCN1CCNCC1
100 | 8.99 | Cc1ccc2nc3nc(C)cc(C)c3c(N)c2c1
101 | 7.88 | Cc1ccc2ccc[n+](C)c2c1
102 | 8.69 | COc1ccc(C2=C(N)C(=O)NC2=O)cc1OC
103 | 16 | CC(C)NC(=S)N1CCC(Cc2ccccc2)CC1
104 | 15.5 | O=C(CNc1cccc2ccccc12)NN=CC=Cc1ccccc1
105 | 14.4 | S=c1[nH]c(-c2ccccc2)c(-c2ccccc2)n1-c1ccccc1
106 | 9.2 | O=C(O)CNc1ccccc1C(=O)O
107 | 13 | Cc1ccc(C(=O)c2cccc(N)c2)cc1C
108 | 10.9 | Cc1nc2ccccc2nc1C=O
109 | 19.6 | CCCCCCCCCCNC(=S)Nc1ccccc1
110 | 3.64 | COC(=O)CN

Row | LC retention time [min] | Structure (SMILES)
111 | 9.69 | Cc1cc2n[nH]nc2cc1C
112 | 8.38 | CN(C)CCC(C)(O)Cc1ccccc1 (stereo unspecified)
113 | 8.26 | CCC(C)N1CNc2c(c(=O)[nH]c(=O)n2-c2ccc(C)c(C)c2)C1 (stereo unspecified)
114 | 9.65 | CN(Cc1ccccc1)C(=S)Nc1cccnc1
115 | 14.1 | Cc1cccc(N2CN(Cc3ccccc3)CNC2=S)c1C
116 | 17 | COc1ccc2c(c1C)CCC1=C(C)C(=O)CCC12C (stereo unspecified)
117 | 10.1 | O=C1NCCc2c1[nH]c1ccccc21
118 | 13.7 | Cc1ccc(-c2nc(-c3c[nH]c4ccccc34)[nH]c2-c2ccc(C)cc2)cc1
119 | 15.3 | Cc1ccccc1-n1nnnc1-c1ccc(-c2nnnn2-c2ccccc2C)cc1
120 | 6.91 | COC(=O)CN1CCCC1=O
121 | 6.44 | NCc1ccncc1
122 | 8.46 | Nc1cc[n+](Cc2ccccc2)cc1
123 | 7.6 | NCc1ccccc1
124 | 3.04 | CN1CC(C(=O)O)CC1=O (stereo unspecified)
125 | 6.9 | Cc1cc(=O)[nH]c(C(C)C)n1
126 | 7.87 | Cc1cc(C)nc(NC(N)=NCc2cccnc2)n1
127 | 12.9 | CC(=O)c1cccc(NC(=O)Nc2ccc(C)cc2)c1
128 | 12.5 | CCn1c(-c2ccccc2)csc1=Nc1ccc(C)c(C)c1
129 | 13.2 | Cc1cc(C)nc(SCc2nc3ccccc3nc2C)n1
130 | 8.88 | Cc1ccc(C(=O)Nc2ccccc2C(=O)N2CCN(C)CC2)cc1
131 | 13.9 | CC1=NC(=O)NC(c2ccccc2)C1C(=O)OC(C)C(C)(C)C (stereo unspecified)

From the RepoRT retention time repository
